Measurements: patent publication US20240376120A1, “CAMPTOTHECIN COMPOUND, PREPARATION METHOD THEREFOR AND USE THEREOF” (priority 2021, published 2024)
Like-named read-outs stand apart in the source and are kept apart here.

Key:
Format in all cases: cell-based
Details in all cases: Homo sapiens, read-out: Proliferation inhibition IC50
[1] = system: MCF-7 cells (human breast cancer cells); assay: MCF-7 cell proliferation inhibitory assay (CellTiter-Glo)
Description: • 1). […] Resuspend an appropriate amount of cell suspension to 4000 cells/100 μL according to the count, mixed well and then put the corresponding number of cells into a 96-well plate by pipette. • 3). Each hole of the edge was sealed with 100 μL DPBS and put into an incubator for culture. • 4). Day 1 drug addition: Prepare the storage solution of the compound to be tested 1 hour in advance. 24 h after plating, the culture medium was gradiently diluted to a concentration twice the final concentration of each group. Take out the plated cells from the incubator and add 100 μL of the corresponding 2-fold concentration medium to each well by pipette.
Day 1 detected: Take out the plate to be tested and an appropriate amount of CTG in advance and rewarm it at room temperature in the dark. 50 μL of CTG was added to each well at 24 h. Shake with the oscillator for 5 minutes, and after balancing in the dark for 5 minutes, detect the luminescence value with a microplate reader; The mixture was shaken for 5 min, and after equilibration in the dark for 5 min, the luminescence value was detected with ELISA. • 6). Day 4 detection: Take an appropriate amount of CTG 1 h in advance and rewarm it at room temperature in the dark. At the same time, take out the plate to be tested from the incubator and leave it to equilibrate at room temperature for 30 minutes; 72 h after adding the drug, 100 μL of culture medium was sucked out with pipette carefully from each cell well, and 50 μL of CTG was added. The mixture was shaken for 5 min, and after equilibration in the dark for 5 min, the luminescence value was detected with ELISA analyzer. • 7). Data analysis and processed.
Collect data and convert it into survival rate: Inhibition rate (%)=(100−(OD value of compound-OD value on the first day)/(OD value of control well-OD value on the first day))×100%
(§1) Input the compound into graphpad prism to obtain the corresponding IC50 value.

[2] = system: MDA-MB-231 cells (human breast cancer cells); assay: MDA-MB-231 cell proliferation inhibitory assay (CellTiter-Glo)
Description: (§2) • 1). […] Resuspend an appropriate amount of cell suspension to 3000 cells/100 μL according to the count, mixed well and then put the corresponding number of cells into a 96-well plate by pipette. • 3). Each hole of the edge was sealed with 100 μL DPBS and put into an incubator for culture. • 4). Day 1 drug addition: Prepare the storage solution of the compound to be tested 1 hour in advance. 24 h after plating, the culture medium was gradiently diluted to a concentration twice the final concentration of each group. Take out the plated cells from the incubator and add 100 μL of the corresponding 2-fold concentration medium to each well by pipette. • 5). Day 1 detected: Take out an appropriate amount of CTG 1 h in advance and the plate was allowed to equilibrate at room temperature for 30 min. 100 μL of CTG was added to each well and shaken for 5 mins, and then standed in the dark for 5 mins, the luminescence value was detected by ELISA. • 6). Day 4 detection: Take an appropriate amount of CTG 1 h in advance and rewarm it at room temperature in the dark. At the same time, take out the plate to be tested from the incubator and leave it to equilibrate at room temperature for 30 minutes; 72 h after adding the drug, 100 μL of culture medium was sucked out with pipette carefully from each cell well, and 100 μL of CTG was added. The mixture was shaken for 5 min, and after equilibration in the dark for 5 min, the luminescence value was detected with ELISA. • 7). Analyze data and write detailed experimental records.
as §1

[3] = system: MDA-MB-435s cells (human melanoma cells); assay: MDA-MB-435s cell proliferation inhibitory assay (CellTiter-Glo)
Description: as §2
Collect data and convert it into survival rate: Inhibition rate (%)=(100−(OD value of compound−OD value on the first day)/(OD value of control well-OD value on the first day))×100%
as §1

Compound	IC50 ([1]; MCF7, 72 h)	IC50 ([2]; MDA-MB-231, 72 h)	IC50 ([3]; MDA-MB-435S, 72 h)	IC50 ([1]; MCF7, MCF-7 cells, 72 h after adding the drug, Table 1)	IC50 ([2]; MDA-MB-231 cells, 72 h after adding the drug, Table 2)	IC50 ([3]; MDA-MB-435s cells, 72 h after adding the drug, Table 3)
CC[C@@]1(O)C(=O)OCc2c1cc1n(c2=O)Cc2c-1nc1cc(F)c(C)cc1c2[C@H](C)NCCNC [Example 25c]	15.3 nM	35.6 nM	3.3 nM			
CC[C@@]1(O)C(=O)OCc2c1cc1n(c2=O)Cc2c-1nc1cc(F)c(C)cc1c2[C@@H](C)NCCNC [Example 25d]				22.3 nM	50.3 nM	5.2 nM
CC[C@@]1(O)C(=O)OCc2c1cc1n(c2=O)Cc2c-1nc1cc(F)c(C)cc1c2[C@H](C)NC(=O)C1CCCCC1O (stereo partly drawn) [Example 26]	35.2 nM	150 nM	5.6 nM			
CC[C@@]1(O)C(=O)OCc2c1cc1n(c2=O)Cc2c-1nc1cc(F)c(C)cc1c2[C@@H](C)NS(C)(=O)=O [Example 26a]	13.3 nM	89.2 nM	2.8 nM			
CC[C@@]1(O)C(=O)OCc2c1cc1n(c2=O)Cc2c-1nc1cc(F)c(C)c(C)c1c2[C@H](C)N [Example 29a]	4.5 nM	10 nM	2.1 nM			
CC[C@@]1(O)C(=O)OCc2c1cc1n(c2=O)Cc2c-1nc1cc(F)c(C)c(C)c1c2[C@@H](C)N [Example 29b]	2.1 nM	6.6 nM	0.72 nM			
CC[C@@]1(O)C(=O)OCc2c1cc1n(c2=O)Cc2c-1nc1cc(F)c(OC)cc1c2[C@H](C)N [Example 30a]	6.3 nM	11.6 nM	3.3 nM			
CC[C@@]1(O)C(=O)OCc2c1cc1n(c2=O)Cc2c-1nc1cc(F)c(OC)cc1c2[C@@H](C)N [Example 30b]	3.8 nM	25 nM	0.9 nM			
CC[C@@]1(O)C(=O)OCc2c1cc1n(c2=O)Cc2c-1nc1cc(F)c(OC)cc1c2[C@H](C)O [Example 30c]	8.1 nM	12.2 nM	3.8 nM			
CC[C@@]1(O)C(=O)OCc2c1cc1n(c2=O)Cc2c-1nc1cc(F)c(OC)cc1c2[C@@H](C)O [Example 30d]	4.1 nM	28.1 nM	1.2 nM			
CC[C@@]1(O)C(=O)OCc2c1cc1n(c2=O)Cc2c-1nc1ccc(OC)cc1c2[C@H](C)N [Example 31a]	8.2 nM	15.1 nM	3.8 nM			
CC[C@@]1(O)C(=O)OCc2c1cc1n(c2=O)Cc2c-1nc1ccc(OC)cc1c2[C@@H](C)N [Example 31b]	4.1 nM	9.2 nM	1 nM			
CC[C@@]1(O)C(=O)OCc2c1cc1n(c2=O)Cc2c-1nc1ccc(OC)cc1c2[C@H](C)O [Example 31c]	10.2 nM	18.3 nM	5.8 nM			
CC[C@@]1(O)C(=O)OCc2c1cc1n(c2=O)Cc2c-1nc1ccc(OC)cc1c2[C@@H](C)O [Example 31d]	8.1 nM	8.3 nM	2.3 nM			
CC[C@@]1(O)C(=O)OCc2c1cc1n(c2=O)Cc2c-1nc1ccc(C(F)F)cc1c2[C@H](C)N [Example 32a]	7.5 nM	16.7 nM	3.37 nM			
CC[C@@]1(O)C(=O)OCc2c1cc1n(c2=O)Cc2c-1nc1ccc(C(F)F)cc1c2[C@@H](C)N [Example 32b]	5.5 nM	20.2 nM	1.85 nM			

Compound	IC50 ([1]; MCF7, 72 h)	IC50 ([2]; MDA-MB-231, 72 h)	IC50 ([3]; MDA-MB-435S, 72 h)	IC50 ([1]; MCF7, MCF-7 cells, 72 h after adding the drug, Table 1)	IC50 ([2]; MDA-MB-231 cells, 72 h after adding the drug, Table 2)	IC50 ([3]; MDA-MB-435s cells, 72 h after adding the drug, Table 3)
CC[C@@]1(O)C(=O)OCc2c1cc1n(c2=O)Cc2c-1nc1cc(F)c(F)cc1c2[C@H](C)N [Example 33a]	6.5 nM	10.9 nM	2.36 nM			
CC[C@@]1(O)C(=O)OCc2c1cc1n(c2=O)Cc2c-1nc1cc(F)c(F)cc1c2[C@@H](C)N [Example 33b]	8.5 nM	24.3 nM	0.85 nM			
CC[C@@]1(O)C(=O)OCc2c1cc1n(c2=O)Cc2c-1nc1cc(F)c(C(F)(F)F)cc1c2[C@H](C)N [Example 34a]	9.6 nM	11.6 nM	4.37 nM			
CC[C@@]1(O)C(=O)OCc2c1cc1n(c2=O)Cc2c-1nc1cc(F)c(C(F)(F)F)cc1c2[C@@H](C)N [Example 34b]	4.2 nM	8.8 nM	2.85 nM			
CC[C@@]1(O)C(=O)OCc2c1cc1n(c2=O)Cc2c-1nc1cc3c(cc1c2[C@H](C)N)OCO3 [Example 35a]	10.3 nM	20.6 nM	3.33 nM			
CC[C@@]1(O)C(=O)OCc2c1cc1n(c2=O)Cc2c-1nc1cc3c(cc1c2[C@@H](C)N)OCO3 [Example 35b]	6.2 nM	7.1 nM	1.15 nM			
CC[C@@]1(O)C(=O)OCc2c1cc1n(c2=O)Cc2c-1nc1cc3c(cc1c2[C@H](C)N)OCCO3 [Example 36a]	15.2 nM	26.3 nM	6.33 nM			
CC[C@@]1(O)C(=O)OCc2c1cc1n(c2=O)Cc2c-1nc1cc3c(cc1c2[C@@H](C)N)OCCO3 [Example 36b]	8.3 nM	15.4 nM	3.15 nM			
CC[C@@]1(O)C(=O)OCc2c1cc1n(c2=O)Cc2c-1nc1cc(F)c(C)cc1c2C1CNC1 [Example 37]	5.1 nM	90.8 nM	2.33 nM			
CC[C@@]1(O)C(=O)OCc2c1cc1n(c2=O)Cc2c-1nc1cc(F)c(C)cc1c2[C@@H]1CCN1 [Example 38a]	5.6 nM	16.6 nM	1.12 nM			
CC[C@@]1(O)C(=O)OCc2c1cc1n(c2=O)Cc2c-1nc1cc(F)c(C)cc1c2[C@H]1CCN1 [Example 38b]	2 nM	6.2 nM	0.65 nM			
CC[C@@]1(O)C(=O)OCc2c1cc1n(c2=O)Cc2c-1nc1cc(F)c(C)cc1c2[C@@H](N)CO [Example 39a]	9.8 nM	25.9 nM	2.12 nM			
CC[C@@]1(O)C(=O)OCc2c1cc1n(c2=O)Cc2c-1nc1cc(F)c(C)cc1c2[C@H](N)CO [Example 39b]	4.6 nM	9.1 nM	1.65 nM			
CC[C@@]1(O)C(=O)OCc2c1cc1n(c2=O)Cc2c-1nc1cc(F)c(C)cc1c2[C@@H](N)C(F)(F)F [Example 40a]	6.6 nM	50 nM	4.12 nM			
CC[C@@]1(O)C(=O)OCc2c1cc1n(c2=O)Cc2c-1nc1cc(F)c(C)cc1c2[C@H](N)C(F)(F)F [Example 40b]	3.5 nM	25.7 nM	2.65 nM			
